Measured values as given in US12509460B2 (Skyhawk Therapeutics, Inc., priority 2019, dated 2025).
Where two headings read alike, the source gives them in different places.

What was measured:
[1] = Quantitative splicing assay (HTT), qPCR; assay type: cell-based, human; details: Homo sapiens; GM04724 lymphoblasts, 24 h, qPCR; read-out: HTT Splicing: E49-50 EC50
How it was run: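 Patient lymphoblasts (50,000 cells/well) dosed immediately after plating for 24 h at 2.5 uM to 0.15 nM in 0.1% DMSO. Lysed, cDNA made directly from cells, and inclusion of the intron 49 cryptic exon quantified by TaqMan qPCR.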

MDR1 (P-gp) = assay: in vitro; details: dog, MDCK-MDR1, pH 7.4
MDR1 = assay: in vitro; details: dog, MDCK-MDR1, pH 7.4
[2] = tested on: mHTT protein in GM04724 (CAG 70/20) Huntington's disease patient lymphoblast cells; assay: mHTT protein assay, 2B7-MW1 assay via Mesoscale Discovery (MSD); assay type: cell-based, human
How it was run: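 Patient lymphoblasts treated 48 h with compound from 10 μM to 0.6 nM. mHTT quantified by MSD 2B7-MW1 immunoassay, whose signal depends on polyQ expansion and HTT size. Viability measured on a replicate plate by CellTiter Glo.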

[3] = tested on: MDR1-MDCK cell monolayers; details: dog, MDCK-MDR1, 120 min, 5 μM, pH 7.4
[4] = tested on: SMN protein in spinal muscular atrophy (SMA) patient fibroblasts (GM03813, Coriell); assay: SMN protein assay, Mesoscale Discovery (MSD); assay type: cell-based, human; details: for EC50: read-out: SMN2 protein EC50
How it was run: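 SMA patient fibroblasts (GM03813) seeded at 7000 cells/well and exposed to compound at 2.5 μM to 0.6 nM for 48 hours. Lysates assayed for SMN by MSD immunoassay, with absolute SMN amount calculated from a per-plate SMN standard curve (1 μg/ml to 19.5 pg/ml).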

[5] = GM04724 Huntington's disease patient lymphoblasts
[6] = SMA patient fibroblasts GM03813, 48 hours, MSD
[7] = GM04724 (CAG 70/20) Huntington's disease patient lymphoblasts
[8] = SMA patient fibroblasts (GM03813), 48 hours

Row | Compound | EC50 [1] | Papp A→B at 120 min, 5 μM (MDR1 (P-gp)) | Papp B→A at 120 min, 5 μM (MDR1 (P-gp)) | efflux ratio at 120 min, 5 μM (MDR1) | EC50 [2, 5] | MDCK-MDR1: % Recov A-B [3] | MDCK-MDR1: % Recov B-A [3] | SMN2 protein EC50 [4, 6] | EC50 [4, 6] | mHTT protein EC50 [2, 7] | EC50 [4, 8] | mHTT protein EC50 [2, 5] | SMN2 protein EC50 [4, 8]
1 | CN(c1ccc(-c2cc(C#N)ccc2O)nn1)[C@H]1C[C@@H]2CC[C@@H](N2)[C@H]1F (single isomer, unassigned) [Compound 70B] | 10 to 501 nM | 3.84 ×10⁻⁶ cm/s | 58.1 ×10⁻⁶ cm/s | 15 | 101 to 500 nM | 95% | 100% | E (501 ≤ E ≤ 10.000) | – | – | – | – | –
2 | CN(c1ccc(-c2cc3ccn(C)c(=O)c3cc2O)nn1)[C@H]1C[C@@H]2CC[C@H]([C@H]1F)N2C (single isomer, unassigned) [Compound 97B] | 101 to 500 nM | 1.96 ×10⁻⁶ cm/s | 53.1 ×10⁻⁶ cm/s | 27 | 101 to 500 nM | 85% | 83% | – | 101 to 500 nM | – | – | – | –
3 | CN(c1ccc(-c2cc3c(=O)n(C)cnc3cc2O)nn1)[C@@H]1C[C@H]2CC[C@@H]([C@@H]1F)N2C [Compound 102A, 6-(6-(((1S,2S,3R,5R)-2-fluoro-8-methyl-8-azabicyclo[3.2.1]octan-3-yl)(methyl)amino)pyridazin-3-yl)-7-hydroxy-3-methylquinazolin-4(3H)-one] | – | 1.43 ×10⁻⁶ cm/s | 58.1 ×10⁻⁶ cm/s | 41 | – | 88% | 92% | – | – | E (501 ≤ E ≤ 10.000) | 101 to 500 nM | – | –
4 | O=c1c2cc(O)c(-c3ccc(N(C4CC4)[C@@H]4C[C@H]5CC[C@H](N5)[C@@H]4F)nn3)cc2ncn1CC(F)(F)F (single isomer, unassigned) [Compound 60A] | – | 0.44 ×10⁻⁶ cm/s | 65.9 ×10⁻⁶ cm/s | 151 | – | 94% | 100% | E (501 ≤ E ≤ 10.000) | – | – | – | E (501 ≤ E ≤ 10.000) | –
5 | CN(c1ccc(-c2cc3ccn(C)c(=O)c3cc2O)nn1)[C@@H]1C[C@H]2CC[C@@H]([C@@H]1F)N2C (single isomer, unassigned) [Compound 97A] | – | 1.96 ×10⁻⁶ cm/s | 40.3 ×10⁻⁶ cm/s | 20 | – | 73% | 74% | – | 101 to 500 nM | – | – | E (501 ≤ E ≤ 10.000) | –
6 | CN(C)C(=O)c1cc2cc(O)c(-c3ccc(N(C)[C@H]4C[C@@H]5CC[C@H]([C@H]4F)N5C)nn3)cc2o1 (single isomer, unassigned) [Compound 106B] | – | 1.61 ×10⁻⁶ cm/s | 55.7 ×10⁻⁶ cm/s | 35 | – | 92% | 99% | – | – | E (501 ≤ E ≤ 10.000) | 101 to 500 nM | – | –
7 | CNC(=O)c1ccc(-c2ccc(N(C)[C@@H]3C[C@H]4CC[C@H](N4)[C@@H]3F)nn2)c(O)c1 (single isomer, unassigned) [Compound 77A] | – | 0.29 ×10⁻⁶ cm/s | 36.3 ×10⁻⁶ cm/s | 124 | – | 104% | 110% | – | 101 to 500 nM | – | – | E (501 ≤ E ≤ 10.000) | –
8 | CN(c1ccc(-c2cc3ccn(C)c(=O)c3s2)nn1)[C@@H]1C[C@H]2CC[C@H](N2)[C@@H]1F (single isomer, unassigned) [Compound 67A] | – | 0.42 ×10⁻⁶ cm/s | 37.9 ×10⁻⁶ cm/s | 90 | – | 94% | 99% | E (501 ≤ E ≤ 10.000) | – | – | – | E (501 ≤ E ≤ 10.000) | –
9 | CN1[C@H]2CC[C@@H]1[C@@H](F)[C@@H](N(c1ccc(-c3cc4ncn(CC(F)(F)F)c(=O)c4cc3O)nn1)C1CC1)C2 (single isomer, unassigned) [Compound 111B] | – | 0.66 ×10⁻⁶ cm/s | 35.9 ×10⁻⁶ cm/s | 54 | – | 74% | 56% | – | – | E (501 ≤ E ≤ 10.000) | – | – | E (501 ≤ E ≤ 10.000)
